Data: paper PMC12238723, “Phase I Clinical Trial of CVL218, a Novel PARP1/2 Inhibitor, in Patients with Advanced Solid Tumors” (MedComm, 2025)

Tested on: patients with advanced solid tumors
Test: Treatment-related adverse events (CTCAE v5.0), phase I dose escalation
Type: in vivo
Description: This study was a single‐arm, dose‐escalation phase I trial conducted in Sun Yat‐sen University Cancer Center in China. This study assessed CVL218 in patients with histologically or cytologically confirmed advanced solid tumors who were in PD after standard therapeutic regimens or lacked standard treatment options. Inclusion criteria included: age 18–75 years; with at least one measurable and evaluable target lesion per Response Evaluation Criteria in Solid Tumors 1.1 (RECIST 1.1); ECOG performance status of 0 or 1; adequate hematological, renal, cardiac, and hepatic functions and a life expectancy ≥12 weeks. Key exclusion criteria included prior usage of PARP inhibitors; allergic to the research drug or its components; with active, unstable systemic diseases or active, uncontrolled infection; a history of other malignancies within 5 years, and pregnant or lactating women.
CVL218 was administered orally, and this dose‐escalation trial included nine dose levels: 100 mg QD (50 mg BID), 200 mg QD (100 mg BID), 400 mg QD (200 mg BID), 700 mg QD (350 mg BID), 1000 mg QD (500 mg BID), 1200 mg QD (600 mg BID), 1400 mg QD (700 mg BID), 1700 mg QD (850 mg BID), and 2000 mg QD (1000 mg BID). Patients enrolled in the study received a single oral dose on the first day, followed by continuous multiple dosing (twice a day taking 12 h apart) after 72 h, with the treatment cycle lasting 4 weeks. The period during which patients received a single dose is designated as cycle 0 (C0), lasting 72 h. After this period, patients begin multiple dosing, referred to as cycle 1 (C1). An initial accelerated titration design was employed for the three lowest dose groups, and the “3+3” design was applied starting with the 300 mg BID cohort.
The primary objectives were to assess safety and tolerability as well as to determine the MTD, DLT, and dose recommended for further study. DLT was defined as any of the following events occurring during cycle 0 (including 72 h wash‐out period after a single dose) and cycle 1 per Common Terminology Criteria for Adverse Events (CTCAE) version 5.0: grade 4 anemia; grade 4 neutropenia; grade 3 neutropenia with fever ≥38.5°C; grade 4 thrombocytopenia; grade 3 thrombocytopenia associated with bleeding; grade ≥2 neurotoxicity; any other grade ≥3 nonhematological toxicities (excluding alopecia). The secondary objectives were to assess the PK and preliminary efficacy of CVL218.
Subjects who received at least one dose of CVL218 with postadministration safety records were included in safety analysis set. Subjects who received at least one dose of CVL218 with at least one evaluable PK parameter were included in PK analysis set. Per‐protocol set were used for efficacy analysis. Descriptive statistics of safety were presented per CTCAE v5.0. The PK parameters T max and T 1/2 were shown as the median (min, max) and mean ± SD, respectively. A two‐sided p < 0.05 was considered to indicate statistical significance. Statistical analysis was performed by using GraphPad prism 8.0.2 and R‐4.3.3.

For CNCc1ccc(-c2cc3cc(F)cc(C(N)=O)c3o2)cc1.Cl [CVL218], the Musculoskeletal discomfort (850 mg BID, ≥G3) was 0 n (%), the Musculoskeletal disorders (850 mg BID, ≥G3) was 0 n (%) and the Nausea (850 mg BID, ≥G3) was 0 n (%). For the same compound, the Nervous system disorders (850 mg BID, ≥G3) was 0 n (%), the Neutrophil count decreased (850 mg BID, ≥G3) was 0 n (%) and the Neutrophil count increased (850 mg BID, ≥G3) was 0 n (%). The Palpitations (850 mg BID, ≥G3) was 0 n (%), the Protein urine present (850 mg BID, ≥G3) was 0 n (%) and the Proteinuria (850 mg BID, ≥G3) was 0 n (%). The Rash (850 mg BID, ≥G3) was 0 n (%), the “Renal & urinary disorders” value (850 mg BID, ≥G3) was 0 n (%) and the Renal failure (850 mg BID, ≥G3) was 0 n (%). The Reproductive disorders (850 mg BID, ≥G3) was 0 n (%), the Skin disorders (850 mg BID, ≥G3) was 0 n (%) and the “Urinary occult blood positive” value (850 mg BID, ≥G3) was 0 n (%). For the same compound, the Vomiting (850 mg BID, ≥G3) was 0 n (%), the WBC count decreased (850 mg BID, ≥G3) was 0 n (%) and the WBC count increased (850 mg BID, ≥G3) was 0 n (%). For the same compound, the ALT increased (All (N = 26), ALL) was 4 (15.4) n (%), the AST increased (All (N = 26), ALL) was 2 (7.7) n (%) and the Abdominal distension (All (N = 26), ALL) was 1 (3.8) n (%). For the same compound, the Abdominal pain (All (N = 26), ALL) was 1 (3.8) n (%), the Abdominal pain upper (All (N = 26), ALL) was 1 (3.8) n (%) and the Amylase increased (All (N = 26), ALL) was 2 (7.7) n (%). For the same compound, the Anemia (All (N = 26), ALL) was 2 (7.7) n (%), the “Any AE related to study drug” value (All (N = 26), ALL) was 26 (100) n (%) and the Asthenia (All (N = 26), ALL) was 2 (7.7) n (%). The Blood creatinine increased (All (N = 26), ALL) was 5 (19.2) n (%), the Blood system disorders (All (N = 26), ALL) was 2 (7.7) n (%) and the Blood triglycerides increased (All (N = 26), ALL) was 1 (3.8) n (%). For the same compound, the Blood urea increased (All (N = 26), ALL) was 1 (3.8) n (%), the Cardiac disorders (All (N = 26), ALL) was 1 (3.8) n (%) and the Chest discomfort (All (N = 26), ALL) was 2 (7.7) n (%). For the same compound, the Constipation (All (N = 26), ALL) was 2 (7.7) n (%), the Decreased appetite (All (N = 26), ALL) was 5 (19.2) n (%) and the Diarrhea (All (N = 26), ALL) was 10 (38.5) n (%). For the same compound, the Dizziness (All (N = 26), ALL) was 3 (11.5) n (%), the Erectile dysfunction (All (N = 26), ALL) was 1 (3.8) n (%) and the Gastrointestinal disorders (All (N = 26), ALL) was 24 (92.3) n (%). The General disorders (All (N = 26), ALL) was 4 (15.4) n (%), the Gingival bleeding (All (N = 26), ALL) was 1 (3.8) n (%) and the Granulocyte count increased (All (N = 26), ALL) was 1 (3.8) n (%). For the same compound, the Headache (All (N = 26), ALL) was 2 (7.7) n (%), the Hypoalbuminemia (All (N = 26), ALL) was 2 (7.7) n (%) and the Infusion site pain (All (N = 26), ALL) was 1 (3.8) n (%). For the same compound, the Laboratory test disorders (All (N = 26), ALL) was 15 (57.7) n (%), the Limb discomfort (All (N = 26), ALL) was 1 (3.8) n (%) and the Lipase increased (All (N = 26), ALL) was 6 (23.1) n (%). The Metabolic disorders (All (N = 26), ALL) was 6 (23.1) n (%), the Musculoskeletal discomfort (All (N = 26), ALL) was 1 (3.8) n (%) and the Musculoskeletal disorders (All (N = 26), ALL) was 1 (3.8) n (%). The Nausea (All (N = 26), ALL) was 20 (76.9) n (%), the Nervous system disorders (All (N = 26), ALL) was 4 (15.4) n (%) and the Neutrophil count decreased (All (N = 26), ALL) was 1 (3.8) n (%). The Neutrophil count increased (All (N = 26), ALL) was 2 (7.7) n (%), the Palpitations (All (N = 26), ALL) was 1 (3.8) n (%) and the Protein urine present (All (N = 26), ALL) was 1 (3.8) n (%). The Proteinuria (All (N = 26), ALL) was 6 (23.1) n (%), the Rash (All (N = 26), ALL) was 3 (11.5) n (%) and the “Renal & urinary disorders” value (All (N = 26), ALL) was 7 (26.9) n (%). The Renal failure (All (N = 26), ALL) was 3 (11.5) n (%), the Reproductive disorders (All (N = 26), ALL) was 1 (3.8) n (%) and the Skin disorders (All (N = 26), ALL) was 3 (11.5) n (%). The “Urinary occult blood positive” value (All (N = 26), ALL) was 1 (3.8) n (%), the Vomiting (All (N = 26), ALL) was 20 (76.9) n (%) and the WBC count decreased (All (N = 26), ALL) was 1 (3.8) n (%). For the same compound, the WBC count increased (All (N = 26), ALL) was 2 (7.7) n (%), the ALT increased (All (N = 26), ≥G3) was 0 n (%) and the AST increased (All (N = 26), ≥G3) was 0 n (%). The Abdominal distension (All (N = 26), ≥G3) was 0 n (%), the Abdominal pain (All (N = 26), ≥G3) was 1 (3.8) n (%) and the Abdominal pain upper (All (N = 26), ≥G3) was 0 n (%). The Amylase increased (All (N = 26), ≥G3) was 0 n (%), the Anemia (All (N = 26), ≥G3) was 0 n (%) and the “Any AE related to study drug” value (All (N = 26), ≥G3) was 4 (15.4) n (%). The Asthenia (All (N = 26), ≥G3) was 0 n (%), the Blood creatinine increased (All (N = 26), ≥G3) was 3 (11.5) n (%) and the Blood system disorders (All (N = 26), ≥G3) was 0 n (%). For the same compound, the Blood triglycerides increased (All (N = 26), ≥G3) was 0 n (%), the Blood urea increased (All (N = 26), ≥G3) was 1 (3.8) n (%) and the Cardiac disorders (All (N = 26), ≥G3) was 0 n (%). The Chest discomfort (All (N = 26), ≥G3) was 0 n (%), the Constipation (All (N = 26), ≥G3) was 0 n (%) and the Decreased appetite (All (N = 26), ≥G3) was 0 n (%). For the same compound, the Diarrhea (All (N = 26), ≥G3) was 0 n (%), the Dizziness (All (N = 26), ≥G3) was 0 n (%) and the Erectile dysfunction (All (N = 26), ≥G3) was 0 n (%). For the same compound, the Gastrointestinal disorders (All (N = 26), ≥G3) was 1 (3.8) n (%), the General disorders (All (N = 26), ≥G3) was 0 n (%) and the Gingival bleeding (All (N = 26), ≥G3) was 0 n (%). The Granulocyte count increased (All (N = 26), ≥G3) was 0 n (%), the Headache (All (N = 26), ≥G3) was 0 n (%) and the Hypoalbuminemia (All (N = 26), ≥G3) was 0 n (%). For the same compound, the Infusion site pain (All (N = 26), ≥G3) was 0 n (%), the Laboratory test disorders (All (N = 26), ≥G3) was 4 (15.4) n (%) and the Limb discomfort (All (N = 26), ≥G3) was 0 n (%). For the same compound, the Lipase increased (All (N = 26), ≥G3) was 1 (3.8) n (%), the Metabolic disorders (All (N = 26), ≥G3) was 0 n (%) and the Musculoskeletal discomfort (All (N = 26), ≥G3) was 0 n (%). For the same compound, the Musculoskeletal disorders (All (N = 26), ≥G3) was 0 n (%), the Nausea (All (N = 26), ≥G3) was 0 n (%) and the Nervous system disorders (All (N = 26), ≥G3) was 0 n (%). The Neutrophil count decreased (All (N = 26), ≥G3) was 0 n (%), the Neutrophil count increased (All (N = 26), ≥G3) was 0 n (%) and the Palpitations (All (N = 26), ≥G3) was 0 n (%). For the same compound, the Protein urine present (All (N = 26), ≥G3) was 0 n (%), the Proteinuria (All (N = 26), ≥G3) was 0 n (%) and the Rash (All (N = 26), ≥G3) was 0 n (%). The “Renal & urinary disorders” value (All (N = 26), ≥G3) was 0 n (%), the Renal failure (All (N = 26), ≥G3) was 0 n (%) and the Reproductive disorders (All (N = 26), ≥G3) was 0 n (%). The Skin disorders (All (N = 26), ≥G3) was 0 n (%), the “Urinary occult blood positive” value (All (N = 26), ≥G3) was 0 n (%) and the Vomiting (All (N = 26), ≥G3) was 0 n (%). The WBC count decreased (All (N = 26), ≥G3) was 0 n (%), the WBC count increased (All (N = 26), ≥G3) was 0 n (%) and the “TRAE of any grade: diarrhea” value (all 26 patients) was 38.5%. For the same compound, the “TRAE of any grade: lipase increased” value (all 26 patients) was 23.1%, the “TRAE of any grade: nausea” value (all 26 patients) was 76.9% and the “TRAE of any grade: proteinuria” value (all 26 patients) was 23.1%. For the same compound, the “TRAE of any grade: vomiting” value (all 26 patients) was 76.9%, the “patients with ≥grade 3 TRAEs” value (all 26 patients) was 15.4% and the “≥grade 3 TRAE: abdominal pain” value (all 26 patients) was 3.8%. The “anemia of grade 3 or more severe” value (in vivo) was “None of the anemias were of grade 3 or more severe”, the “grade ≥3 gastrointestinal AEs” value (in vivo) was 3.8% and the “patients with gastrointestinal reactions” value (in vivo) was 92.3%. For the same compound, the “≥grade 3 TRAE: blood creatinine increased” value (in vivo) was 11.5%, the “≥grade 3 TRAE: blood urea increased” value (in vivo) was 3.8% and the “≥grade 3 TRAE: lipase increased” value (in vivo) was 3.8%.
